The source of these data is PMC6539144, “Discovery of Novel Potential Reversible Peptidyl Arginine Deiminase Inhibitor” (International Journal of Molecular Sciences, 2019).

Like-named read-outs stand apart in the source and are kept apart here.

In assay [1] the target is T1, GST-PAD4 (Homo sapiens, UniProt Q9UM07).
T1 construct: made in house
Kind of assay: GST-PAD4 inhibition assay (Dansyl-Gly-Arg citrullination, HPLC). As to conditions: for Inhibition of GST-PAD4, initial screening: 0–250 µM inhibitor, 0.25 mM Dansyl-Gly-Arg; for Ki / IC50: GST-PAD4 preincubated 30 min with compound, 0.5 mM DTT, 10 mM CaCl2, 0.25 mM Dansyl-Gly-Arg, mean ± S.D., n = 3; for Ki: assuming competitive reversible mechanism; for IC50: linear regression. It counts as biochemical. As to the method: 1 mU of GST-PAD4 was used in the experiments. To optimize the concentration of the reducing agent, experiments were done using different concentrations of DTT in the assay buffer ranging from 0 to 10 mM and the final concentration for the presented results was 0.5 mM DTT. Following pre-incubation of enzyme in the assay buffer, the reaction was initiated by the addition of 0.25 mM Dansyl-Gly-Arg. The reaction was stopped after 1h (as described above), the sample was separated by HPLC and the relative activity of PAD in each sample was determined by measuring the peak area of the citrullinated Dansyl-Gly-Arg.
The equilibrium inhibition constant (Ki) and IC50 were calculated from the fit of observed PAD activity against the respective compound concentration. Data was analyzed by the built-in Morrisson equation for tight-binding inhibition and represent the mean ± SD from at least three different determinations. IC50 values were determined by the linear regression to the initial fragment of the inhibition curve and are representative of inhibitor concentration required for the 50% reduction in the product release during the reaction.

Assay [2] addresses T2, HisTag-PPAD (Porphyromonas gingivalis, UniProt Q9RQJ2).
T2 construct: made in house
Kind of assay: HisTag-PPAD inhibition assay (Dansyl-Gly-Arg citrullination, HPLC). Format: biochemical. As to conditions: 0–250 µM inhibitor, 0.25 mM Dansyl-Gly-Arg.

In assay [3] the target is T1, GST-PAD4. Kind of assay: GST-PAD4 inhibitory activity in the presence of serum and synovial fluid. It counts as biochemical. The conditions noted are these: for Inhibitory potential on GST-PAD4 in the presence of serum / Inhibitory activity on GST-PAD4 in the presence of RA synovial fluid: 50 µM compound (Cl-amidine 50 and 200 µM); for Inhibitory potential on GST-PAD4 in the presence of serum: serum diluted 1:3, compared to in vitro conditions; for Inhibitory activity on GST-PAD4 in the presence of RA synovial fluid: synovial fluid diluted 1:3, 1 mM Dansyl-Gly-Arg. As to the method: A total of 50 μM of compounds 1 to 6 were pre-incubated with 1 mU of GST-PAD4 for 30 min at 37 °C with serum from healthy blood donors, serum or synovial fluid from patients with RA, serially diluted from 1:1.5 to 1:30 in the assay buffer (100 mM Tris pH 7.5, 10 mM CaCl2). The reaction was then initiated by the addition of 1 mM Dansyl-Gly-Arg and stopped after 1h as described above. The assay included a negative and positive control: a DMSO (no compound) control and a known irreversible compound (Cl-amidine) at 50 and 200 μM. Samples were separated by HPLC.

Assay [4] concerns human neutrophils. The assay is described as follows: Histone H3 citrullination in neutrophils stimulated with calcium ionophore. Format: cell-based. The conditions noted are these: 50 µM, 4 μM calcium ionophore stimulation. As to the method:
Neutrophils were isolated from human peripheral blood collected in acid citrate dextrose (ACD-A) by first spinning blood on Lymphoprep^TM (Axis Shield, Oslo, Norway), followed by dextran sedimentation using 3% dextran density gradient and hypotonic lysis of erythrocytes. Neutrophil purity was assessed to be >90% by flow cytometry. Cells were resuspended at 2 × 10^6 cells/mL in RPMI-1640 with HEPES (Thermo Fisher Scientific, Waltham, MA, USA) supplemented with 2 mM CaCl2 and pre-treated for 30 min with DMSO alone, 50 μM of compounds 1 to 6 or with either 50 or 200 μM of Cl-amidine. Cells were then stimulated with 4 μM calcium ionophore A23187 (Sigma-Aldrich, St. Louis, MO, USA) or left unstimulated as controls for 15 min at 37 °C, 5% CO2. Following stimulation, acid extraction of histones was performed according to Shechter et al.. […] The presence of citrullination in cellular histones was analyzed by Western blot.
The protein concentration in each sample was measured (A280nm) and normalized post-extraction. […] The signal was recorded with ChemiDoc image analyzer (Bio-Rad Laboratories, Hercules, CA, USA).

Assay [5] deals with PAD4. The conditions noted are these: cited from earlier work.
Assay [6] deals with human neutrophils. The assay is described as follows: NET assay: extracellular DNA release (PicoGreen) from PMA-stimulated neutrophils. The conditions noted are these: 30 µM. It counts as cell-based. As to the method: Granulocyte-enriched fractions were harvested using a lymphocyte separation medium density gradient (PAN Biotech, Aidenbach, Germany). Neutrophils and erythrocytes were separated after 30 min of incubation with 1% polyvinyl alcohol (POCH, Gliwice, Poland). Neutrophils were collected from the upper layer and after centrifugation (280× g, 10 min), the residual erythrocytes were removed by lysis in water. Cells were then resuspended in serum-free DMEM without phenol red (Gibco, Waltham, MA, USA). To measure the extracellular DNA release, neutrophils were seeded at 2 × 10^6/well in 0.01 mg/mL poly-L-lysine (Sigma-Aldrich) coated 24-well plates and centrifuged (200× g, 5 min). Neutrophils were treated for 1h with DMSO alone, or with either 30 μM or 100 μM of compound 4 or Cl-amidine. Cells were then stimulated with 25 nM PMA (phorbol 12-myristate 13-acetate) or left unstimulated as controls for 3 h at 37 °C, 5% CO2. Following stimulation, the cell medium was collected and the extracellular DNA was quantified using the Quant-iT^TM PicoGreen® dsDNA Reagent (QPG; Invitrogen, Carlsbad, CA, USA). The 1:200 dilution of QPG in TE buffer (10 mM Tris, 1 mM EDTA, pH 7.5) and 90 μL of TE buffer was added to 10 μL of the supernatant containing the extracellular DNA and fluorescence was measured with an excitation wavelength 480 nm and emission wavelength 520 nm.

Assay [7] relates to human neutrophils. The assay is described as follows: NETs imaging assay (DNA and histone H2A immunostaining). Format: cell-based. As to conditions: 100 µM, PMA stimulation. As to the method:
For the NETs imaging assays, neutrophils were allowed to adhere to poly-L-lysine coated coverslips (5 × 10^5 cells/coverslip) for 30 min at 37 °C, 5% CO2. Neutrophils were then treated for 1 h with DMSO alone, or 100 μM of compound 4 or Cl-amidine. Neutrophils were then stimulated with 25 nM PMA or left unstimulated as controls for 3 h at 37 °C, 5% CO2. Neutrophils were fixed with 3.7% formaldehyde for 10 min, washed three times with PBS and blocked (5% FBS, 1% BSA, 0.05% Tween, 2 mM EDTA in PBS) for 1 h. Cells were washed and treated with 0.1% saponin (Sigma-Aldrich) in PBS for 30 min. Cells were stained first with rabbit polyclonal anti-histone H2A antibody (Abcam), and then with allophycocyanin (APC) F(ab’)2 goat anti-rabbit antibody (Jackson ImmunoResearch Lab Inc., Ely, UK) in the presence of 3% BSA in 0.1% saponin. Cells were counterstained with 1 µg/mL Hoechst 33258 dye (Invitrogen). Images were captured with a fluorescence microscope (Nikon Eclips Ti, Nikon, Konan, Tokyo).

Assay [8] concerns the target T1, GST-PAD4. Kind of assay: Histone H3 citrullination assay (purified calf thymus histone H3, western blot). It counts as biochemical. The conditions noted are these: 50 µM, purified calf thymus histone H3, 0.5 mM DTT. As to the method: A total of 50 μM of compounds 1 to 6 were pre-incubated with 1 mU of GST-PAD4 for 30 min at 37 °C in the assay buffer (100 mM Tris pH 7.5, 10 mM CaCl2, 0.5 mM DTT). After that, 5 μg of purified calf thymus histone H3 was added to the reaction mixture and incubated further for 60 min at 37 °C. Three controls were performed in the assay: a DMSO (no compound) control and a known irreversible compound (Cl-amidine) at 50 and 200 μM. The citrullination was assessed by western blot using antibodies specific to citrullinated histone H3.
The protein concentration in each sample was measured (A280nm) and normalized post-extraction. Next, histone proteins were separated in precast Novex^TM 16% Tris-Glycine 1 mm minigels (Invitrogen, Carlsbad, CA, USA). After electrophoresis, proteins were transferred into nitrocellulose membranes (0.2 μm) at 4 °C (transfer buffer: 10 mM CAPS, 20% methanol, pH 11). Membranes were blocked for 1 h at room temperature with 5% milk in TBST (1× Tris Buffered Saline, pH 8.0, with 0.1% Tween 20) and then incubated overnight at 4 °C with rabbit polyclonal anti-H3Cit antibody (Abcam, ab5103, Cambridge, UK) at a 1:1,000 dilution in the blocking solution. […] The signal was recorded with ChemiDoc image analyzer (Bio-Rad Laboratories, Hercules, CA, USA).

Assay [9] concerns collagen-induced arthritis. The conditions noted are these: cited from earlier work.
The subject of assay [10] is colitis. Also noted: method as in PMID 21415415. The conditions noted are these: cited from earlier work.
The mark [11] stands for this setting: 50 µM compound, serum diluted 1:3, 1 mM Dansyl-Gly-Arg.
Setting [12] is: PAD4-specific reversible inhibitors, read-out: IC50.

T1 sequence (Q9UM07 whole entry): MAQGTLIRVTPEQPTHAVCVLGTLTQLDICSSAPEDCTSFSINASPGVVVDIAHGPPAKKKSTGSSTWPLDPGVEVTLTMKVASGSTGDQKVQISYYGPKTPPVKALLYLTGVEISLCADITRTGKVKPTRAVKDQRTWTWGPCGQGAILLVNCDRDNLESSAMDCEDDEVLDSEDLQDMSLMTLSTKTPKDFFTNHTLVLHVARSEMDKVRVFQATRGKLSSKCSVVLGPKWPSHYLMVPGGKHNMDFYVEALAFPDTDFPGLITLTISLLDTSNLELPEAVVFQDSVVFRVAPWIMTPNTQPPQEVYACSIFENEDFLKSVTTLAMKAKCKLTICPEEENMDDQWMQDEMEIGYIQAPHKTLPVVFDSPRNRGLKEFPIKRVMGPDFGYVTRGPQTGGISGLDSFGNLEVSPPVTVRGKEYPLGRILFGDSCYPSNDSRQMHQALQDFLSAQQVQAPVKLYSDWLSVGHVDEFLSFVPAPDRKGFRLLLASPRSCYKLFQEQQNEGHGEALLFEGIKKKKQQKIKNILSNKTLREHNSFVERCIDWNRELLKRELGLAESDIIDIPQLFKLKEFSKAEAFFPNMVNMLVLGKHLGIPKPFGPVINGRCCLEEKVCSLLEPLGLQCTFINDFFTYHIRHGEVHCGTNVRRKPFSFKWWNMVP
T2 sequence (Q9RQJ2 44-556): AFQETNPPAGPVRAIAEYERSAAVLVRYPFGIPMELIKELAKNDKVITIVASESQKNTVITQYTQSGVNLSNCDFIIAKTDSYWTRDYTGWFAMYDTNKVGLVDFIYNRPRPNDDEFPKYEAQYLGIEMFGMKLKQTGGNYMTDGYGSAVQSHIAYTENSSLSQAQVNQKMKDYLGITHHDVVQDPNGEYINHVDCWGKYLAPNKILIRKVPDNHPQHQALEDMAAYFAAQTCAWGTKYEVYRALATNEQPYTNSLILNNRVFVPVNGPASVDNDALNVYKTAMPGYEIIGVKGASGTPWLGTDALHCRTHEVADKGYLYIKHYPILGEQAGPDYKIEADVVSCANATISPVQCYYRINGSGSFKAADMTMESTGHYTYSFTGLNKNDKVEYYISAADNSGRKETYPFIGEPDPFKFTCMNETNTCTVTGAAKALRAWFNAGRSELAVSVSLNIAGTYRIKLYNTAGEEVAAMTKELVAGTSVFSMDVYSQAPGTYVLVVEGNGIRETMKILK

A word on the Ki: it is a measure of affinity in units of concentration, obtained from inhibition or displacement. One may read the IC50 as the concentration that gives 50% inhibition. With `Cc1ccc(/C=c2/sc3ncnn3c2=O)o1` [Compound 2], in assay [1], the “Inhibition of GST-PAD4, initial screening” value was “partially inhibited”; the Ki was 940 ± 310 nM; the IC50 was determined as 1400 ± 260 nM. For the same compound, the “Inhibition of HisTag-PPAD” value in assay [2] is “no effect”. Moreover, the “Inhibitory potential on GST-PAD4 in the presence of serum” value (from here on “Inhibitory potential on GST-PAD4”) in [3] was “retained their inhibitory potential”. Further, the “Inhibition of histone H3 citrullination in neutrophils (western blot)” value in assay [4] is on record as “ineffective”.

In the case of `Cc1ccc(/C=c2/sc3ncnn3c2=O)o1` [Compound 1], the “Inhibition of GST-PAD4, initial screening” value in [1] is “no inhibition”. In addition, the “Inhibitory activity on GST-PAD4 in the presence of RA synovial fluid” value in assay [3] is recorded as “did not show any detectable inhibitory activity”. Also, in assay [3] (setting [11]), the “Inhibitory activity on GST-PAD4 in the presence of serum from RA patients” value is on record as “did not show any detectable inhibitory activity” and the “Inhibitory activity on GST-PAD4 in the presence of serum from healthy donors” value is on record as “did not show any detectable inhibitory activity”.

Consider `CN(C)c1ccc(O)c2c1C[C@H]1C[C@H]3[C@H](N(C)C)C(O)=C(C(N)=O)C(=O)[C@@]3(O)C(O)=C1C2=O` [minocycline], for which, in assay [5] (reversible inhibitors), the IC50 entry is “millimolar”.

As to `FC(F)(F)c1cc(SCc2ccc(Cl)c(Cl)c2)nc2cc3c(cc12)OCO3` [Compound 4], in assay [1], the “Inhibition of GST-PAD4, initial screening” value is on record as “partially inhibited”; the inhibition constant (Ki) is 1000 ± 160 nM; the IC50 amounted to 1880 ± 260 nM. In addition, in assay [6], the “Inhibition of DNA release (NETs) from PMA-stimulated neutrophils” value is given as “limited ability to block DNA release”. For the same compound, in assay [7], the “NET formation visualized by DNA and histone H2A immunostaining” value is recorded as “blocked the NET formation”. The “Inhibition of HisTag-PPAD” value in assay [2] is “no effect”. Moreover, the “Inhibition of GST-PAD4-mediated citrullination of histone H3 (western blot)” value in assay [8] was “significantly hampered”. Besides, the “Inhibitory potential on GST-PAD4” value in assay [3] is recorded as “retained their inhibitory potential”. Moreover, the “Inhibitory activity on GST-PAD4 in the presence of serum from RA patients” value in assay [3] (setting [11]) is on record as “did not diminish further”. In assay [4], the “Inhibition of histone H3 citrullination in neutrophils (western blot)” value is on record as “visibly limited”.

For `CCn1c(-c2nc3cc(C(=O)N4CCCC(N)C4)cc(OC)c3n2C)cc2cccnc21` (stereo not drawn) [GSK199], the half-inhibitory concentration (IC50) in assay [5] (setting [12]) was 200 nM.

In the case of `COc1cc(C(=O)N2CC[C@@H](O)[C@@H](N)C2)cc2nc(-c3cc4ccccc4n3CC3CC3)n(C)c12` [GSK484], the IC50 in assay [5] (setting [12]) was […].

Take `[H]/N=C(/N)N[C@H]1[C@H](O)[C@@H](O)[C@H](O[C@@H]2O[C@@H](C)[C@](O)(C=O)[C@H]2O[C@@H]2O[C@@H](CO)[C@H](O)[C@@H](O)[C@@H]2NC)[C@@H](N/C(N)=N\[H])[C@@H]1O` [streptomycin]: the IC50 result in [5] (reversible inhibitors) is listed as “millimolar”.

For the compound `CC(=O)O[C@H]1C(=O)[C@@]2(C)[C@H]([C@H](OC(=O)c3ccccc3)[C@]3(O)C[C@H](OC(=O)[C@H](O)[C@@H](NC(=O)c4ccccc4)c4ccccc4)C(C)=C1C3(C)C)[C@]1(OC(C)=O)CO[C@@H]1C[C@@H]2O` [taxol], in [5] (reversible inhibitors), the IC50 result is given as “millimolar”.

`N=C(CCl)NCCC[C@H](NC(=O)c1ccccc1)C(N)=O` [Cl-amidine, N-α-Benzoyl-N5-(2-Chloro-1-Iminoethyl)-l-Ornithine Amide, reference compound]: the “Severity of murine collagen-induced arthritis” value in assay [9] was “decrease in the severity”. Further, in [6], the “Inhibition of DNA release (NETs) from PMA-stimulated neutrophils” value is “inhibited this effect”. Besides, the half-inhibitory concentration (IC50) in assay [5] (read-out: IC50) is […]. Also, the “NET formation visualized by DNA and histone H2A immunostaining” value in assay [7] is “blocked the NET formation”. Further, in assay [10], the “Clinical signs and symptoms of colitis” value is “reduce clinical signs and symptoms of colitis”. In addition, the “Inhibition of GST-PAD4-mediated citrullination of histone H3 (western blot)” value in assay [8] is “not effective”. Besides, in [3], the “Inhibitory potential on GST-PAD4” value is “partially losing its inhibitory potential” and the “Inhibitory activity on GST-PAD4 in the presence of RA synovial fluid” value is reported as “ineffective”.
